# In patent publication US20240309447A1, “METHODS AND KITS FOR PREPARING A SAMPLE […] OR MORE RNA MOLECULES FOR SEQUENCING” (The Hong Kong University of Science and Technology, priority 2023, published 2024):
# What was measured:
# Format in all cases: biochemical
# [1] = molecular target: T1, E coli. poly(A) polymerase (Escherichia coli, UniProt P0ABF1); test: Poly(A) polymerase-based extension of model short RNA (A-terminated), Urea-PAGE; details: for addition of nucleotide analogue sequence to the 3′ termini of the model short RNA: 1 mM analogue, 15 minutes, model short RNA (A-terminated)
# Description: The reaction cocktail was used in the subsequent studies as described in examples below.
# ATP was used as the positive control. The reaction cocktail for the poly(A) polymerase-based extension for each of the nucleoside analogue triphosphates and ATP was prepared as described in Table 2. The 10 μL of the reaction cocktail was incubated at 37° C. for 15 minutes to allow the extension of the adenine nucleotides (A) or nucleotide analogues. The reacted RNA products were visualized using Urea-PAGE.
# The experiment was further repeated for 2-Amino-6-Cl-purine-rTP addition by poly(A) polymerase-based extension with different incubation times, i.e. 5, 10, 15, 20 minutes respectively. Addition of ATP by poly(A) polymerase-based extension with 20-minute incubation time was used as the positive control. The reacted RNA products were visualized using Urea-PAGE.
# [2] = molecular target: T1, E coli. poly(A) polymerase; test: Poly(A) polymerase-based reaction with different nucleotide analogues and their combination on UnaG-120A mRNA, Fragment Analyzer; details: for addition to UnaG-120A mRNA by poly(A) polymerase: 1 mM total analogue, 37° C., 15 minutes; for appearance of the RNA product: UnaG-120A mRNA, Fragment Analyzer
# Description: In this example, the ability of poly(A) polymerase-based reaction to add different nucleotide analogues to the 3′ termini of UnaG-120A mRNA as the oligo nucleotide analogue sequence has been tested. […] The 10 μL of the reaction mixture was incubated at 37° C. for 15 minutes. The reacted RNA products were visualized using Fragment Analyzer.
# [3] = molecular target: T1, E coli. poly(A) polymerase; test: Poly(A) polymerase-based extension of model mRNA mixture, Fragment Analyzer; details: mixture of CLuc-53AGGCCCCU, EGFP-40A, UnaG-120A; 15-minute extension
# Excerpt: In this example, three model mRNAs CLuc-53AGGCCCCU, EGFP-40A, and UnaG-120A as shown in Table 1 are mixed in an equal amount to create a model mRNA mixture. The same poly(A) polymerase-based extension as described in Example 5 was used to add 2-Amino-6-Cl-purine-rTP to the model RNA mixture. Fragment Analyzer (Agilent®) was used to measure the lengths of the model RNA mixture before and after the reaction.
# [4] = molecular target: T1, E coli. poly(A) polymerase; test: One-pot 3′ extension of model short RNA, Urea-PAGE; details: 15 minutes analogue, then ATP added, 37° C.
# Description: In this example, the reaction cocktail for the one-pot 3′ extension of model short RNA (as shown in Table 1) was prepared as described in Table 4. The reaction cocktail (without ATP) was incubated at 37° C. for 15 minutes to allow for 2-Amino-6-Cl-purine-rTP addition. After 15 minutes of reaction, 1 μL of 10 mM ATP (New England BioLabs®) was directly added into the reaction mixture, and further incubated for different durations of time at 37° C.
# [5] = molecular target: T1, E coli. poly(A) polymerase; test: Poly(A) polymerase-based extension of C, G and U-terminated model short RNAs, Urea-PAGE; details: for addition of oligo nucleotide analogue to model short RNAs with different 3′ terminal bases: 1 mM, 37° C., 15 minutes
# Description: In this example, 2-Amino-ATP, 2-Amino-6-Cl-purine-rTP and 2′-F-dATP have been tested for poly(A) polymerase-based extension to add the respective oligo nucleotide analogue sequences to the 3′ termini of model short RNAs with different terminal bases other than A, i.e. C, G and U-terminated model short RNAs as shown in Table 1. ATP was used as the positive control. The reaction cocktail for the poly(A) polymerase-based extension for each model short RNA was prepared as described in Table 2. The 10 μL of the reaction mixture was incubated at 37° C. for 15 minutes to allow the addition of 2-Amino-6-Cl-purine-rTP to the model short RNAs. The reacted RNA products were visualized using Urea-PAGE.
# T1 sequence (P0ABF1 11-465): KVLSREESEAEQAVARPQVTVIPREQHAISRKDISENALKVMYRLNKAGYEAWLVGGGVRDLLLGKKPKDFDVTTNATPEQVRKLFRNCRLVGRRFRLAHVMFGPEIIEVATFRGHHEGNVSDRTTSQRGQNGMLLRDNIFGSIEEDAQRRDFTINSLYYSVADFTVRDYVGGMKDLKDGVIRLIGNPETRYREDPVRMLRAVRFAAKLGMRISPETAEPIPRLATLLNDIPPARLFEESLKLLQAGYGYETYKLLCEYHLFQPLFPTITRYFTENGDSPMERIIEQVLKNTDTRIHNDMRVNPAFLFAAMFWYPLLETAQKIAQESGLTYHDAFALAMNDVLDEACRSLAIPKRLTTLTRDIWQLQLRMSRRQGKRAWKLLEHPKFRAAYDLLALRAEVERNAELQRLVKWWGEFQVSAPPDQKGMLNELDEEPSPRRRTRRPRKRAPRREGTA
SMILES,addition of nucleotide analogue sequence to the 3′ termini of the model short RNA ([1]; 37° C.),"time within which the reaction was complete ([1]; 37° C., 1 mM) [min]","nucleotides added to the 3′ terminus of model short RNA ([1]; 5 minutes incubation, 37° C., 1 mM)","length of tailed model short RNA product ([1]; 5 minutes incubation, original RNA 136 nt) [nt]",addition to UnaG-120A mRNA by poly(A) polymerase [2],appearance of the RNA product [2],addition of oligo sequence to model mRNAs (upward band shift) [3],sequential addition of oligo analogue sequence and oligo(A) sequence [4],comparison among nucleotide analogues [5],addition of oligo nucleotide analogue to model short RNAs with different 3′ terminal bases [5]
Nc1nc(Cl)c2ncn(C3OC(COP(=O)(O)OP(=O)(O)OP(=O)(O)O)C(O)C3O)c2n1 (stereo not shown) [2-Amino-6-Cl-purine-rTP],successfully added,10 to 20,over 60 nts,> 196,can be added,upshifted clear main band,added to all model mRNAs,successfully added,produced the best results,successfully added
Nc1nc(N)c2ncn(C3OC(COP(=O)(O)OP(=O)(O)OP(=O)(O)O)C(O)C3O)c2n1 (stereo not shown) [2-Amino-ATP],successfully added,,,,can be added,distribution of RNA sizes shown as a smear,,,,successfully added
Nc1ncnc2c1ncn2C1OC(COP(=O)(O)OP(=O)(O)OP(=O)(O)O)C(O)C1F (stereo not shown) [2′-F-dATP],successfully added,,,,,,,,,successfully added
